Target: Cannabinoid receptor 2 (Homo sapiens, UniProt P34972)
Experiment: Inhibition of [3H]CP-55940 binding to human recombinant CB2 receptor in CHO cells

Chain of Cannabinoid receptor 2 (P34972 whole entry): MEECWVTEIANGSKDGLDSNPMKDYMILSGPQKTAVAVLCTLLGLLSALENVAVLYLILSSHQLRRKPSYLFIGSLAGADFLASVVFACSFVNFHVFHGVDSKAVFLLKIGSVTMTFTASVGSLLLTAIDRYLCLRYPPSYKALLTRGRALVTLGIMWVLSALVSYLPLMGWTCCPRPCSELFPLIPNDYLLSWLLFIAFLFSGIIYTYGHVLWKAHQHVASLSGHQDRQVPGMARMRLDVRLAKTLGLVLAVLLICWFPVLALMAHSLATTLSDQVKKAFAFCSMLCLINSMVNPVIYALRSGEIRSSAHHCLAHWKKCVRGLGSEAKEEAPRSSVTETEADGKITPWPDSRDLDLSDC

Compound | IC50 [nM]
C[C@H](NC(=O)C(C)(C)Oc1ccc(Cl)cc1)[C@@H](Cc1ccc(Cl)cc1)c1ccc(Cl)cc1 [(1S,2S)N-[2,3-bis(4-chlorophenyl)-1-methylpropyl]-2-(4-chlorophenyloxy)-2-methylpropanamide] | > 2000
C[C@H](NC(=O)C(C)(C)Oc1ccccc1)[C@@H](Cc1ccc(Cl)cc1)c1ccccc1 [N-((2S,3S)-4-(4-chlorophenyl)-3-phenylbutan-2-yl)-2-methyl-2-phenoxypropanamide] | 450
CC(NC(=O)C(C)(C)Oc1ccc(Cl)cc1)C(Cc1ccc(Cl)cc1)c1ccc(Cl)cc1 (stereo not given) [N-[2,3-bis(4-chlorophenyl)-1-methylpropyl]-2-(4-chlorophenyloxy)-2-methylpropanamide] | 1100
CC(NC(=O)C(C)(C)Oc1ccc(Cl)cc1)C(Cc1ccc(Cl)cc1)c1ccccc1 (stereo not given) [N-[3-(4-chlorophenyl)-1-methyl-2-phenylpropyl]-2-(4-chlorophenyloxy)-2-methylpropanamide] | 610
C[C@H](NC(=O)C(C)(C)Oc1cccc(F)c1)[C@@H](Cc1ccc(Cl)cc1)c1ccccc1 [N-[(1S,2S)-3-(4-chlorophenyl)-1-methyl-2-phenylpropyl]-2-(3-fluorophenyloxy)-2-methylpropanamide] | 290

These reach a lower IC50. Values come first.

IC50 [nM] | Compound
200 | C[C@H](NC(=O)C(C)(C)Oc1cc(F)cc(F)c1)[C@@H](Cc1ccc(Cl)cc1)c1ccccc1 [N-((2S,3S)-4-(4-chlorophenyl)-3-phenylbutan-2-yl)-2-(3,5-difluorophenoxy)-2-methylpropanamide]
190 | C[C@H](NC(=O)C(C)(C)Oc1cccc(Cl)c1)[C@@H](Cc1ccc(Cl)cc1)c1ccccc1 [N-[(1S,2S)-3-(4-chlorophenyl)-1-methyl-2-phenylpropyl]-2-(3-chlorophenyloxy)-2-methylpropanamide]
140 | C[C@H](NC(=O)C(C)(C)Oc1ccc(C(F)(F)F)cn1)[C@@H](Cc1ccc(Cl)cc1)c1ccccc1 [N-((2S,3S)-4-(4-chlorophenyl)-3-phenylbutan-2-yl)-2-methyl-2-(5-(trifluoromethyl)pyridin-2-yloxy)propanamide]
100 | C[C@H](NC(=O)C(C)(C)Oc1ccc(Cl)cn1)[C@@H](Cc1ccc(Cl)cc1)c1ccccc1 [N-[(1S,2S)-3-(4-chlorophenyl)-1-methyl-2-phenylpropyl]-2-[(5-chloro-2-pyridin-2-yl)oxy]-2-methylpropanamide]
88 | C[C@H](NC(=O)C(C)(C)Oc1ccccn1)[C@@H](Cc1ccc(Cl)cc1)c1ccccc1 [N-[(1S,2S)-3-(4-chlorophenyl)-1-methyl-2-phenyl-propyl]-2-(2-pyridyloxy)-2-methylpropanamide]

From BindingDB's records for doi:10.1021/jm060996+ (Merck Research Laboratories, 2006)
